The test system of assay [1] is RAW 264.7 cells. As to the kind of experiment: Lipid profile (prostaglandins, 2-AG, AEA and related lipids) of RAW 264.7 cell extracts, UPLC-MS/MS. Type of assay: cell-based, mouse. As to conditions: 30 min; for Effect on levels of AEA and related N-acylethanolamines in the cells: LPS + INF-γ-treated, ionomycin (5 μM) treated cells, flurbiprofen and (R)-Flu-AM1 10 μM.

In assay [2] the test system is RAW 264.7 cells. As to the kind of experiment: [3H]AEA hydrolysis by intact RAW 264.7 cells. The format is cell-based, mouse. The settings on record: LPS + INF-γ-treated cells; 100 nM [3H]AEA, 60 min; URB597 1 μM, flurbiprofen and (R)-Flu-AM1 10 μM.
Where [3] appears, read: LPS + IFNγ 24 h, URB597 1 μM, flurbiprofen 10 μM, (R)-Flu-AM1 10 μM, median (range), n = 5–6.
[4] abbreviates: Treatment None (unstimulated), URB597 1 μM, flurbiprofen 10 μM, (R)-Flu-AM1 10 μM, median (range), n = 5–6.

Each structure is given as a SMILES string.

Take `CC(C(=O)O)c1ccc(-c2ccccc2)c(F)c1` (stereo not drawn) [Flurbiprofen, flurbiprofen, reference compound]: the “Effect on basal and LPS + INF-γ-stimulated PGD2 and PGE2 production” value with RAW 264.7 cells [1] (10 μM) is given as “blocked”. Further, the “Effect on levels of 2-AG in the cell extracts” value in the assay on RAW 264.7 cells [1] (10 μM, unstimulated and LPS + INF-γ-treated) is given as “not affected”. Further, the “Effect on levels of AEA and related N-acylethanolamines in the cells” value in the assay on RAW 264.7 cells [1] (URB597 1 μM) is listed as “did not affect”. In addition, the “Effect on hydrolysis of exogenous [3H]AEA by intact cells” value in the assay on RAW 264.7 cells [2] was “would not be expected, and this was found to be the case”.
Consider `NC(=O)c1cccc(-c2cccc(OC(=O)NC3CCCCC3)c2)c1` [URB597, cyclohexylcarbamic acid 3′-carbamoylbiphenyl-3-yl ester, reference compound], for which, in the assay with RAW 264.7 cells [1] (setting [3]), the “2-AG level relative to vehicle None median” value is given as 0.90 (0.70–1.11), the “9,10,13-TriHOME level relative to vehicle None median” value is recorded as 1.08 (0.68–1.89), the “9,10-DiHOME level relative to vehicle None median” value is listed as 0.76 (0.69–1.05) and the “9,12,13-TriHOME level relative to vehicle None median” value is on record as 1.08 (0.66–1.79). For the same compound, in the assay with RAW 264.7 cells [1] (setting [3]), the “9-HODE level relative to vehicle None median” value is given as 1.11 (0.49–1.20), the “11-HETE level relative to vehicle None median” value is reported as 13.0 (4.82–25.7), the “12(13)-EpOME level relative to vehicle None median” value is 1.24 (0.92–1.72) and the “12(S)-HEPE level relative to vehicle None median” value was 0.59 (0.28–1.36). Moreover, in the assay on RAW 264.7 cells [1] (setting [3]), the “12,13-DiHOME level relative to vehicle None median” value is given as 0.93 (0.85–1.26), the “12-HETE level relative to vehicle None median” value is 0.61 (0.41–0.96), the “13-HODE level relative to vehicle None median” value was 1.16 (0.49–1.43) and the “13-oxo-ODE level relative to vehicle None median” value was 1.52 (0.34–2.87). Also, in the assay with RAW 264.7 cells [1] (setting [3]), the “15-HETE level relative to vehicle None median” value is reported as 4.58 (0.97–5.29), the “AEA level relative to vehicle None median” value is 1.39 (1.26–1.58), the “LEA level relative to vehicle None median” value was 1.06 (0.79–1.87) and the “OEA level relative to vehicle None median” value was 0.97 (0.74–1.96). Further, in the assay with RAW 264.7 cells [1] (setting [3]), the “PEA level relative to vehicle None median” value is listed as 0.97 (0.88–1.31), the “PGD2 level relative to vehicle None median” value is recorded as 35.1 (19.4–117), the “PGE2 level relative to vehicle None median” value is on record as 10.6 (7.33–33.5) and the “SEA level relative to vehicle None median” value is reported as 0.79 (0.67–1.28). Moreover, in the assay with RAW 264.7 cells [1] (URB597 1 μM), the “Effect on levels of AEA and related N-acylethanolamines in the cells” value is given as “modest effects”. Besides, in the assay with RAW 264.7 cells [1] (setting [4]), the “2-AG level relative to vehicle None median” value is reported as 1.10 (0.61–1.47), the “9,10,13-TriHOME level relative to vehicle None median” value is listed as 1.13 (0.44–2.51), the “9,10-DiHOME level relative to vehicle None median” value was 1.10 (0.65–1.32) and the “9,12,13-TriHOME level relative to vehicle None median” value is 1.23 (0.51–2.53). Further, in the assay with RAW 264.7 cells [1] (setting [4]), the “9-HODE level relative to vehicle None median” value was 1.14 (0.72–2.07), the “11-HETE level relative to vehicle None median” value is given as 1.12 (0–2.69), the “12(13)-EpOME level relative to vehicle None median” value was 1.07 (0.66–1.66) and the “12(S)-HEPE level relative to vehicle None median” value is recorded as 0.59 (0–0.85). Also, in the assay on RAW 264.7 cells [1] (setting [4]), the “12,13-DiHOME level relative to vehicle None median” value is reported as 1.15 (1.04–1.39), the “12-HETE level relative to vehicle None median” value was 0.94 (0.33–1.48), the “13-HODE level relative to vehicle None median” value is recorded as 1.42 (0.79–1.75) and the “13-oxo-ODE level relative to vehicle None median” value was 1.40 (0.76–2.27). Moreover, in the assay with RAW 264.7 cells [1] (setting [4]), the “15-HETE level relative to vehicle None median” value is listed as 1.02 (0.25–2.16), the “AEA level relative to vehicle None median” value is on record as 0.85 (0.45–1.18), the “LEA level relative to vehicle None median” value was 0.79 (0.68–1.15) and the “PEA level relative to vehicle None median” value is reported as 1.07 (0.87–1.28). Moreover, in the assay on RAW 264.7 cells [1] (setting [4]), the “PGD2 level relative to vehicle None median” value is 1.37 (0.79–2.48), the “PGE2 level relative to vehicle None median” value is reported as 0.98 (0.49–1.81) and the “SEA level relative to vehicle None median” value was 0.80 (0.65–1.27). In addition, the “Effect on hydrolysis of exogenous [3H]AEA by intact cells” value with RAW 264.7 cells [2] is “completely blocked”.

Source of the values: article PMC4583449, “Characterisation of (R)-2-(2-Fluorobiphenyl-4-yl)-N-(3-Methylpyridin-2-yl)Propanamide as a Dual Fatty Acid Amide Hydrolase: Cyclooxygenase Inhibitor” (PLoS ONE, 2015).
